Measurements as given in article PMC9579194, “Selective macrocyclic peptide modulators of Lys63-linked ubiquitin chains disrupt DNA damage repair” (Nature Communications, 2022).
“And” between values parts separate entries of the source, which are not always exact repeats. Equal entries are not always repeated. Where two headings read alike, the source gives them in different places. Values belong to the compound of their own block, whether it stands above or below them. *1 amine or outer side, *2 acyl side, *3 side chain or, on linkers, in order; H or OH if unused. Where a SMILES comes first, the peptide text is derived from it. Bridges are numbered along the chain shown (N, C = ends). The star is where a group is joined. Fluorescein(5-Mal) = O=C1OC2(c3ccc(O)cc3Oc3cc(O)ccc32)c2ccc(N3C(=O)CC(*)C3=O)cc21; X2 = CN(C)c1ccc2c(-c3ccc(N4C(=O)CC(*)C4=O)cc3C(=O)[O-])c3ccc(=[N+](C)C)cc-3oc2c1; X1 = O=C(c1cccc(C[*:2])c1)[*:1]; X3 = Fc1c(F)c(F)c(*)c(F)c1F

Experiments:
Lys63 linked Di-Ub = target: T1, Lys63 linked Di-Ub (Homo sapiens, UniProt P0CG48); assay: KD determination of fluorophore-labeled cyclic peptides, fluorescence-based assay; format: binding; details: for Kd: fluorophore-labeled peptide, Y = Bmax*X/(KD + X); for Reading-1 / Reading-2 / Reading-3: raw fluorescence, blank not subtracted, Experiments 1-3
T1 construct: made in house; host or cells: total chemical synthesis (Fmoc-SPPS, ligation, desulfurization)
Procedure: (ii) Determination of KD value of CP1-FITC
According to the described procedure in literature,3 the KD value of FITC-labeled cyclic peptide 1 (CP1- […]
Supplementary Fig. 25 The carve represents the binding of CP1-FITC to Lys63 linked Di-Ub. Using Y = […]
All measurements were performed in three independent experiments. Bars represent mean values. All source data are provided as a Source […]
(iii) Determination of KD value of CP1-TAMRA
The fluorescence values were measured (λex = 510 nm and λem = 565 nm) in a similar way as described for CP1-FITC. The dissociation constant (KD) value of TAMRA-labeled CP1 (CP1-TAMRA) was calculated as 101.9 ± 3.6 nM. All measurements were performed in triplicates.
Supplementary Fig. 26 The carve represents the binding of CP1-TAMRA to Lys63 linked Di-Ub. Using […]
performed in triplicates. All measurements were performed in three independent experiments. Bars represent mean values. All source data are provided as a Source data file. […]
(iv) Determination of KD value of 2-FITC, 29
The dissociation constant (KD) value of FITC-labeled cyclic peptide 29 was calculated as 43.2± 4 nM.
Supplementary Fig. 27 The carve represents the binding of 2-FITC to Lys63 linked Di-Ub. Using Y = […]
All measurements were performed in triplicates. All measurements were performed in three independent experiments. Bars represent mean values. All source data are provided as a Source data file .
(v) Determination of KD value of 2-TAMRA, 26
CP1-FITC. The dissociation constant (KD) value of TAMRA-labeled 26 (2-TAMRA) was calculated as 47.4 ± 5.9 nM. All measurements were performed in triplicates.
Supplementary Fig. 28 The carve represents the binding of 2-TAMRA to Lys63 linked Di-Ub. Using Y = […]
in triplicates. All measurements were performed in three independent experiments. Bars represent mean […]
(vi) Determination of KD value of FITC labeled cyclic peptide 27a for cyclic peptide 20 […]
Supplementary Fig. 29 The carve represents the binding of 27a to Lys63 linked Di-Ub. Using Y = […]
values. All source data are provided as a Source data file. […]

U2OS cells [1] = system: U2OS cells
Procedure: (§1) Cells were seeded for 24 h on Ibidi 8 well µ-slides treated with poly-L-lysine to reach ~90% confluency. Cells were then washed three times with warm PBS followed by incubation for 1 h with a warm serum-free medium (DMEM) containing peptides. Thereafter, cells were washed two times with warm PBS. Prior to imaging, cells were washed with an optical culture medium and stained with Hoechst (2 µg/ml). Live cell CLSM images were captured using Confocal Zeiss LSM 710 equipped with 40× NA 1.2 water immersion objective lens using a 1 AU pinhole settings. Different lasers were used for the different tags (Hoechst, TAMRA, FITC), and during analysis, the µ-slide was kept at 37 °C in a humidified chamber. Images were analyzed using ZEN 3.2 (blue edition).

cells = assay: Cell membrane integrity analysis, SYTOX blue assay; format: cell-based; details: up to 2 μM of cyclic peptides
Procedure: To assess the cell toxicity due to the loss of membrane integrity within the concentration range used for efficient live-cell delivery of synthetic cyclic peptide molecules, we proceed similarly to the cell uptake experiment and stain the cells with SYTOX™ Blue (100 nM)[44]. SYTOX™ blue dead cell stain is a high-affinity nucleic acid stain that easily penetrates cells with compromised plasma membranes but will not cross uncompromised cell membranes. […] CLSM images were analyzed using ZEN 3.2 (blue edition).

U2OS cells [2] = assay: Cell uptake study by confocal microscopy; details: live U2OS cells, 1 h, laser scanning confocal microscopy
Procedure: as §1

Kd (Lys63 linked Di-Ub): 43.2 ± 4 nM
cell-permeability / delivery to cells (U2OS cells [1]): did not observe an efficient delivery
Compound: CC[C@H](C)[C@@H]1NC(=O)[C@H](Cc2c[nH]c3ccccc23)NC(=O)[C@H]([C@@H](C)CC)NC(=O)[C@H](CC(C)C)NC(=O)[C@H](CS)NC(=O)c2cccc(c2)CSC[C@@H](C(=O)NCC(=O)N[C@@H](C)C(=O)N[C@@H](CSC2CC(=O)N(c3ccc4c(c3)C(=O)OC43c4ccc(O)cc4Oc4cc(O)ccc43)C2=O)C(N)=O)NC(=O)[C@H](CC(C)C)NC(=O)[C@H]([C@@H](C)CC)NC(=O)[C@H](Cc2ccc(O)cc2)NC(=O)[C@@H]2CCCN2C(=O)[C@H](CC(N)=O)NC(=O)[C@H](CCCCN)NC(=O)[C@H](CO)NC(=O)[C@H](CO)NC(=O)CNC1=O (stereo partly drawn) [2-FITC] (CLIWIGSSKNPYILCGAC(Fluorescein(5-Mal))-NH2; linker N-15 via X1)

Compound: CC[C@H](C)[C@@H]1NC(=O)[C@H](Cc2c[nH]c3ccccc23)NC(=O)[C@H]([C@@H](C)CC)NC(=O)[C@H](CC(C)C)NC(=O)[C@H](CS)NC(=O)c2cccc(c2)CSC[C@@H](C(=O)NCC(=O)N[C@@H](C)C(=O)N[C@@H](CSC2CC(=O)N(c3ccc(-c4c5ccc(=[N+](C)C)cc-5oc5cc(N(C)C)ccc45)c(C(=O)[O-])c3)C2=O)C(N)=O)NC(=O)[C@H](CC(C)C)NC(=O)[C@H]([C@@H](C)CC)NC(=O)[C@H](Cc2ccc(O)cc2)NC(=O)[C@@H]2CCCN2C(=O)[C@H](CC(N)=O)NC(=O)[C@H](CCCCN)NC(=O)[C@H](CO)NC(=O)[C@H](CO)NC(=O)CNC1=O (stereo partly drawn) [2-TAMRA] (CLIWIGSSKNPYILCGAC(X2)-NH2; linker N-15 via X1)
Kd (Lys63 linked Di-Ub): 47.4 ± 5.9 nM
SYTOX signal (cell membrane integrity) (cells): did not detect SYTOX signal
cell-permeability / delivery to cells (U2OS cells [2]): efficient cell-permeability

Kd (Lys63 linked Di-Ub): 285 ± 11.9 nM
Compound: CC[C@H](C)[C@@H]1NC(=O)[C@H](Cc2c[nH]c3ccccc23)NC(=O)[C@H]([C@@H](C)CC)NC(=O)[C@H](CC(C)C)NC(=O)[C@H](CSc2c(F)c(F)c(F)c(F)c2F)NC(=O)c2cccc(c2)CSC[C@@H](C(=O)NCC(=O)N[C@@H](C)C(=O)N[C@@H](CSC2CC(=O)N(c3ccc4c(c3)C(=O)OC43c4ccc(O)cc4Oc4cc(O)ccc43)C2=O)C(N)=O)NC(=O)[C@H](CC(C)C)NC(=O)[C@H]([C@@H](C)CC)NC(=O)[C@H](Cc2ccc(O)cc2)NC(=O)[C@@H]2CCCN2C(=O)[C@H](CC(N)=O)NC(=O)[C@H](CCCCN)NC(=O)[C@H](CO)NC(=O)[C@H](CO)NC(=O)CNC1=O (stereo partly drawn) [27a] (C(X3)LIWIGSSKNPYILCGAC(Fluorescein(5-Mal))-NH2; linker N-15 via X1)

Reading-1 (Lys63 linked Di-Ub; conc. 10 nM): 1192 and 1298 and 1136
Reading-2 (Lys63 linked Di-Ub; conc. 10 nM): 1174 and 1279 and 1151
Reading-3 (Lys63 linked Di-Ub; conc. 10 nM): 1201 and 1288 and 1189
Reading-1 (Lys63 linked Di-Ub; conc. 20 nM): 1625 and 1719 and 1573
Reading-2 (Lys63 linked Di-Ub; conc. 20 nM): 1643 and 1748 and 1595
Reading-3 (Lys63 linked Di-Ub; conc. 20 nM): 1657 and 1774 and 1588
Reading-1 (Lys63 linked Di-Ub; conc. 40 nM): 2317 and 2485 and 2207
Reading-2 (Lys63 linked Di-Ub; conc. 40 nM): 2298 and 2498 and 2217
Reading-3 (Lys63 linked Di-Ub; conc. 40 nM): 2354 and 2474 and 2221
Reading-1 (Lys63 linked Di-Ub; conc. 50 nM): 2713 and 2954 and 2674
Reading-2 (Lys63 linked Di-Ub; conc. 50 nM): 2756 and 2925 and 2696
Reading-3 (Lys63 linked Di-Ub; conc. 50 nM): 2732 and 2851 and 2602
Reading-1 (Lys63 linked Di-Ub; conc. 100 nM): 3252 and 3463 and 3183
Reading-2 (Lys63 linked Di-Ub; conc. 100 nM): 3236 and 3622 and 3192
Reading-3 (Lys63 linked Di-Ub; conc. 100 nM): 3249 and 3477 and 3196
Reading-1 (Lys63 linked Di-Ub; conc. 150 nM): 3598 and 3825 and 3755
Reading-2 (Lys63 linked Di-Ub; conc. 150 nM): 3624 and 3817 and 3779
Reading-3 (Lys63 linked Di-Ub; conc. 150 nM): 3602 and 3844 and 3784
Reading-1 (Lys63 linked Di-Ub; conc. 200 nM): 4108 and 4275 and 4422
Reading-2 (Lys63 linked Di-Ub; conc. 200 nM): 4147 and 4231 and 4454
Reading-3 (Lys63 linked Di-Ub; conc. 200 nM): 4171 and 4244 and 4397
Reading-1 (Lys63 linked Di-Ub; conc. 250 nM): 4518 and 4629 and 4716
Reading-2 (Lys63 linked Di-Ub; conc. 250 nM): 4536 and 4677 and 4749
Reading-3 (Lys63 linked Di-Ub; conc. 250 nM): 4549 and 4687 and 4765
Reading-1 (Lys63 linked Di-Ub; conc. 300 nM): 4808 and 4979 and 5034
Reading-2 (Lys63 linked Di-Ub; conc. 300 nM): 4853 and 4995 and 5045
Reading-3 (Lys63 linked Di-Ub; conc. 300 nM): 4869 and 4968 and 5076
Compound: CC[C@H](C)[C@@H]1NC(=O)[C@H](Cc2c[nH]c3ccccc23)NC(=O)[C@H]([C@@H](C)CC)NC(=O)[C@H](CC(C)C)NC(=O)[C@H](CC(C)C)NC(=O)c2cccc(c2)CSC[C@@H](C(=O)NCC(=O)N[C@@H](C)C(=O)N[C@@H](CSC2CC(=O)N(c3ccc4c(c3)C(=O)OC43c4ccc(O)cc4Oc4cc(O)ccc43)C2=O)C(N)=O)NC(=O)[C@H](CC(C)C)NC(=O)[C@H]([C@@H](C)CC)NC(=O)[C@H](Cc2ccc(O)cc2)NC(=O)[C@@H]2CCCN2C(=O)[C@H](CC(N)=O)NC(=O)[C@H](CCCCN)NC(=O)[C@H](CO)NC(=O)[C@H](CO)NC(=O)CNC1=O (stereo partly drawn) [CP1-FITC] (LLIWIGSSKNPYILCGAC(Fluorescein(5-Mal))-NH2; linker N-15 via X1)
